Data taken from patent US20090149520A1, “OXAZOLIDINONES CONTAINING OXINDOLES AS ANTIBACTERIAL AGENTS” (PFIZER INC, priority 2006, published 2009).
In brackets after ≈: the same amount, converted by molar mass.

What was measured:
Assay type in all cases: cell-based
E. faecalis MGH-2 EF 1-1 = assay: in vitro antibacterial activity MIC, E. faecalis; settings: Enterococcus faecalis, MGH2EF11; strain MGH-2 EF 1-1; read-out: MICs E. faecalis MGH-2 EF 1-1
Description: (§1) The in vitro antibacterial activity of the compounds of the present invention may be assessed by following procedures recommended in (1) National Committee for Clinical Laboratory Standards (January 2003), Methods for dilution antimicrobial tests for bacteria that grow aerobically, Approved Standard (6th ed), M7-A6, NCCLS, Wayne, Pa.; (2) National Committee for Clinical Laboratory Standards (March 2001), Methods for antimicrobial susceptibility testing of anaerobic bacteria, Approved Standard (5th ed), M11-A4, NCCLS, Wayne, Pa.; (3) National Committee for Clinical Laboratory Standards (Jan. 2003), MIC testing supplemental tables, M100-S13 (for use with M7-A6), NCCLS, Wayne, Pa.; and (4) Murray P R, Baron E J, Jorgensen J H, et al. Manual of Clinical Microbiology (8th ed) Washington, D.C.: American Society for Microbiology Press, 2003. The antibacterial activity can be presented in the form of MIC value. The MIC value is the lowest concentration of drug, which prevented macroscopically visible growth under the conditions of the test.

S. aureus UC-76 SA-1 = assay: in vitro antibacterial activity MIC, S. aureus; settings: Staphylococcus aureus, UC76; strain UC-76 SA-1; read-out: MICs S. aureus UC-76 SA-1
Description: as §1

S. pneumoniae SV1 SP-3 = assay: in vitro antibacterial activity MIC, S. pneumoniae; settings: Streptococcus pneumoniae, SV1SP3; strain SV1 SP-3; read-out: MICs S. pneumoniae SV1 SP-3
Description: as §1

MIC (E. faecalis MGH-2 EF 1-1) [µg/mL] | MIC (S. aureus UC-76 SA-1) [µg/mL] | MIC (S. pneumoniae SV1 SP-3) [µg/mL] | SMILES
8 (≈ 24.4 µM) | 4 (≈ 12.2 µM) | 4 (≈ 12.2 µM) | CCN1C(=O)Cc2cc(N3C[C@H](Cn4ccnn4)OC3=O)ccc21 [Example 2]
8 (≈ 23.4 µM) | 8 (≈ 23.4 µM) | 8 (≈ 23.4 µM) | CC(C)N1C(=O)Cc2cc(N3C[C@H](Cn4ccnn4)OC3=O)ccc21 [Example 1, (R)-5-((1H-1,2,3-triazol-1-yl)methyl)-3-(1-isopropyl-2 oxoindolin-5-yl)oxazolidin-2-one]
